{"source": "patent US20240100021A1", "about": "“Combination Therapy Schedules to Treat Cancer” (priority 2021, published 2024)", "key": {"[1]": {"details": "cancer patients, cited from earlier work"}, "[2]": {"test_system": "OCI-AML3 cells", "assay": "MTT cell proliferation assay", "type": "cell-based", "details": "continuous exposure 48 hrs, 0.038 μM Bis, 0.26 μM Ara-C, 0.3 μM ABT199, 14 nM Clad, alone or combined, versus control cells"}, "[3]": {"test_system": "MOLM14 cells", "assay": "MTT cell proliferation assay", "type": "cell-based", "details": "48 hrs, 0.038 μM Bis, 0.45 uM Ara-C, 6.3 nM ABT199, alone or combined, versus control"}, "[4]": {"details": "cited from earlier work"}, "[5]": {"details": "animals; cited from earlier work"}, "[6]": {"test_system": "tumor-cytostatic macrophages", "details": "activation of tumor-cytostatic macrophages (Wang et al. 1984); cited from earlier work"}, "[7]": {"test_system": "double-stranded DNA", "details": "physiological conditions; cited from earlier work"}, "[8]": {"details": "cited from earlier work", "remark": "listed apart in the source"}, "[9]": {"details": "cited from earlier work", "remark": "listed apart in the source"}, "[10]": {"details": "cited from earlier work", "remark": "listed apart in the source"}, "[11]": {"details": "patients receiving the drug (Myers et al. 1984); cited from earlier work"}, "[12]": {"details": "cited from earlier work", "remark": "listed apart in the source"}, "[13]": {"details": "cited from earlier work", "remark": "listed apart in the source"}, "[14]": {"details": "predominantly to albumin; cited from earlier work"}, "[15]": {"details": "isolated human hepatocytes, in vitro; cited from earlier work"}, "[16]": {"test_system": "PARP1 and caspase 3 cleavage in MOLM14 cells", "assay": "Western blot of apoptosis markers", "type": "cell-based", "details": "48 hrs"}, "[17]": {"details": "90 min infusion, 260 mg/m^2, biphasic elimination"}, "[18]": {"details": "5 day schedule of 60 min infusions"}, "[19]": {"details": "three phases of elimination (Alberts et al. 1983)"}, "[20]": {"details": "trial with doses of 80-250 mg/m^2"}, "[21]": {"details": "triphasic elimination, first of three single dose studies"}, "[22]": {"details": "triphasic elimination, last of three single dose studies"}, "[23]": {"details": "triphasic elimination, second of three single dose studies"}, "[24]": {"details": "hairy cell leukemia, 0.09 mg/kg/day continuous intravenous infusion over 7 days"}, "[25]": {"details": "pediatric ALL or AML, 52 mg/m^2, noncompartmental analysis"}}, "note": "Where two headings read alike, the source gives them in different places.", "data": [{"compound": "Nc1nc(F)nc2c1ncn2[C@@H]1O[C@H](CO)[C@@H](O)[C@@H]1O", "note": "[2-fluoro-ara-A]", "values": [{"measurement": "factor of increase of plasma trough levels", "setting": "[1]; 5-day treatment schedule, 25 mg 2-fluoro-ara-AMP/m^2 daily over 30 minutes", "value": "about 2"}, {"measurement": "terminal half-life", "setting": "[1]", "value": "approximately 20 hours"}]}, {"compound": "Nc1ccn([C@@H]2O[C@H](CO)[C@@H](O)[C@@H]2O)c(=O)n1", "note": "[Ara-C, 1β-arabinofuranosylcytosine]", "values": [{"measurement": "cell proliferation", "setting": "[2]", "value": 76, "unit": "%"}, {"measurement": "cell proliferation", "setting": "[3]", "value": 89, "unit": "%"}, {"measurement": "plasma radioactivity accounted for by inactive metabolite ara-U", "setting": "[4]; after the distributive phase", "value": "more than 80%"}, {"measurement": "half-life of initial distributive phase", "setting": "[4]; intravenous, biphasic elimination", "value": "about 10 minutes"}, {"measurement": "share of urinary radioactivity excreted as ara-U", "setting": "[4]; within 24 hours", "value": "approximately 90%"}]}, {"compound": "C(=N\\NC1=NCCN1)/c1c2ccccc2c(/C=N/NC2=NCCN2)c2ccccc12.Cl.Cl", "note": "[Bis, 9,10-anthracenedicarboxaldehyde bis[(4,5-dihydro-1H-imidazol-2-yl)hydrazine] dihydrochloride]", "values": [{"measurement": "cell proliferation", "setting": "[2]", "value": 80, "unit": "%"}, {"measurement": "cell proliferation", "setting": "[3]", "value": 79, "unit": "%"}, {"measurement": "cardiotoxicity", "setting": "[5]", "value": "not cardiotoxic"}, {"measurement": "minimal effective in vivo dose", "setting": "[6]", "value": 25, "unit": "mg/kg"}, {"measurement": "affinity constants", "setting": "[7]", "value": "above 10^6 M^−1"}, {"measurement": "plasma concentration", "setting": "[8]; 72-hr infusion study, dose 56 mg/m^2", "value": "12 ± 6", "unit": "ng/mL"}, {"measurement": "plasma concentration", "setting": "[8]; 72-hr infusion study, dose 260 mg/m^2", "value": "55 ± 8", "unit": "ng/mL"}, {"measurement": "plasma clearance", "setting": "[8]; 72-hr infusion study", "value": "1306±179", "unit": "ml/min/m^2"}, {"measurement": "urinary excretion of the dose", "setting": "[8]; 72-hr infusion study, in 24 hr", "value": 4.6, "unit": "%"}, {"measurement": "administered dose excreted unchanged in the urine", "setting": "[8]; 90 min infusion, 260 mg/m^2, after 24 hr", "value": 11.3, "unit": "%"}, {"measurement": "initial half-life", "setting": "[8]; [17]", "value": "1.08 ± 0.25", "unit": "h"}, {"measurement": "terminal half-life", "setting": "[8]; [17]", "value": "19.03 ± 3.77", "unit": "h"}, {"measurement": "plasma clearance", "setting": "[8]; 90 min infusion, 260 mg/m^2", "value": 735, "unit": "ml/min/m^2"}, {"measurement": "steady state volume of distribution (Vdss)", "setting": "[8]; 90 min infusion, 260 mg/m^2", "value": 1845, "unit": "L/m^2"}, {"measurement": "dose excreted in the urine", "setting": "[8]; [18]", "value": 7.1, "unit": "%"}, {"measurement": "t½ α", "setting": "[8]; [18]", "value": 0.9, "unit": "h"}, {"measurement": "t½ β", "setting": "[8]; [18]", "value": 9.7, "unit": "h"}, {"measurement": "dose excreted in the urine", "setting": "[8]; human, in vivo", "value": "Less than 7%"}, {"measurement": "area under the plasma concentration x time curve", "setting": "[8]; intravenous dose 260 mg/m^2", "value": 4400, "unit": "µg·h/mL"}, {"measurement": "area under the plasma concentration x time curve", "setting": "[8]; intravenous dose 340 mg/m^2", "value": 5700, "unit": "µg·h/mL"}, {"measurement": "volume of distribution", "setting": "[8]; one report, interpreted as tissue sequestration", "value": 687, "unit": "L/m^2"}, {"measurement": "beta phase of elimination", "setting": "[8]; [19]", "value": "approximately 1.5 hours"}, {"measurement": "initial distributive phase of elimination", "setting": "[8]; [19]", "value": 6, "unit": "min"}, {"measurement": "administered dose found in the urine", "setting": "[8]; trial with doses of 80-250 mg/m^2, after 96 hr", "value": "3.4±1.1", "unit": "%"}, {"measurement": "calculated volume of distribution", "setting": "[8]; [20]", "value": "42.1 ± 5.9", "unit": "L/kg"}, {"measurement": "clearance", "setting": "[8]; [20]", "value": "17.425 ± 0.85", "unit": "mL/min/kg"}, {"measurement": "initial half-life", "setting": "[8]; [20]", "value": 0.6, "unit": "h"}, {"measurement": "terminal half-life", "setting": "[8]; [20]", "value": 24.7, "unit": "h"}, {"measurement": "t½ α", "setting": "[8]; [21]", "value": 0.0573, "unit": "h"}, {"measurement": "t½ β", "setting": "[8]; [21]", "value": 1.33, "unit": "h"}, {"measurement": "t½ γ", "setting": "[8]; [21]", "value": 26.13, "unit": "h"}, {"measurement": "t½ α", "setting": "[8]; [22]", "value": 0.1, "unit": "h"}, {"measurement": "t½ β", "setting": "[8]; [22]", "value": 1.9, "unit": "h"}, {"measurement": "t½ γ", "setting": "[8]; [22]", "value": 43.9, "unit": "h"}, {"measurement": "t½ α", "setting": "[8]; [23]", "value": 0.05, "unit": "h"}, {"measurement": "t½ β", "setting": "[8]; [23]", "value": 1, "unit": "h"}, {"measurement": "t½ γ", "setting": "[8]; [23]", "value": 8, "unit": "h"}, {"measurement": "bound to plasma proteins", "setting": "[9]", "value": "More than 95%"}, {"measurement": "maximally tolerated dose", "setting": "[10]; daily×5, repeat every 4 weeks (Spiegel et al. 1982)", "value": 80, "unit": "mg/m^2"}, {"measurement": "maximally tolerated dose", "setting": "[10]; monthly (every 3-4 week) (Von Hoff et al., 1981b)", "value": 260, "unit": "mg/m^2"}, {"measurement": "maximally tolerated dose", "setting": "[10]; monthly, patients with poor bone marrow reserve (Von Hoff et al., 1981b)", "value": 240, "unit": "mg/m^2"}, {"measurement": "maximally tolerated dose", "setting": "[10]; weekly×3 (Alberts et al. 1982)", "value": 200, "unit": "mg/m^2"}, {"measurement": "maximally tolerated dose", "setting": "[10]; weekly×3, patients with poor bone marrow reserve (Alberts et al. 1982)", "value": 150, "unit": "mg/mg^2"}, {"measurement": "maximally tolerated dose", "setting": "[10]; weekly×3, repeat every 4-5 week (B.-S. Yap et al. 1982)", "value": 150, "unit": "mg/m^2"}, {"measurement": "ejection fraction, radioangiocardiographic monitoring", "setting": "[11]", "value": "no decrease in ejection fraction"}, {"measurement": "electrocardiographic changes", "setting": "[11]", "value": "No patients experienced electrocardiographic changes"}]}, {"compound": "Nc1nc(Cl)nc2c1ncn2[C@H]1C[C@H](O)[C@@H](CO)O1", "note": "[Clad, 2-chloro-6-amino-9-(2-deoxy-β-D-erythropentofuranosyl) purine]", "values": [{"measurement": "cell proliferation", "setting": "[2]", "value": 87, "unit": "%"}, {"measurement": "mean terminal half-life", "setting": "[12]; 2 hour infusion 0.12 mg/kg, normal renal function", "value": 5.4, "unit": "h"}, {"measurement": "mean clearance", "setting": "[12]; 2 hour infusion 0.12 mg/kg", "value": "16.3 ± 7.03", "unit": "mL/min/kg"}, {"measurement": "mean steady-state volume of distribution", "setting": "[12]; 2 hour infusion 0.12 mg/kg", "value": "4.5 ± 2.8", "unit": "L/kg"}, {"measurement": "average half-life", "setting": "[12]; after intravenous administration, multi-exponential decline", "value": "6.7 ± 2.5", "unit": "h"}, {"measurement": "mean steady-state serum concentration", "setting": "[12]; [24]", "value": 5.7, "unit": "ng/mL"}, {"measurement": "systemic clearance", "setting": "[12]; [24]", "value": 11.06, "unit": "mL/min/kg"}, {"measurement": "mean end-of-infusion plasma concentration", "setting": "[12]; hematologic malignancies, 2 hour infusion 0.12 mg/kg", "value": "48 ± 19", "unit": "ng/mL"}, {"measurement": "apparent volume of distribution", "setting": "[12]; human, in vivo", "value": "approximately 9 L/kg"}, {"measurement": "cerebrospinal fluid concentrations relative to plasma", "setting": "[12]; one report", "value": "approximately 25%"}]}, {"compound": "Nc1nc(Cl)nc2c1ncn2[C@@H]1O[C@H](CO)[C@@H](O)[C@@H]1F", "note": "[clofarabine, 2-Chloro-9-(2-deoxy-2-fluoro-beta-D-arabinofuranosyl)-9H-purin-6-amine]", "values": [{"measurement": "dose excreted in the urine unchanged", "setting": "[13]; 24-hour urine collections, pediatric studies", "value": "49-60%"}, {"measurement": "systemic clearance", "setting": "[13]; [25]", "value": 28.8, "unit": "L/h/m^2"}, {"measurement": "volume of distribution at steady-state", "setting": "[13]; [25]", "value": 172, "unit": "L/m^2"}, {"measurement": "terminal half-life", "setting": "[13]; pediatric ALL or AML, 52 mg/m^2", "value": 5.2, "unit": "h"}, {"measurement": "bound to plasma proteins", "setting": "[14]", "value": 47, "unit": "%"}, {"measurement": "metabolism", "setting": "[15]", "value": 0.2, "unit": "%"}]}, {"compound": "ABT199", "values": [{"measurement": "cell proliferation", "setting": "[2]", "value": 79, "unit": "%"}, {"measurement": "cell proliferation", "setting": "[3]", "value": 77, "unit": "%"}, {"measurement": "cleavage of PARP1 and caspase 3", "setting": "[16]", "value": "caused cleavage of PARP1"}]}]}
